Assay results from patent publication US4115587A, “Fatty acid amides of norfenfluramine and compositions and methods thereof” (A. H. Robins Company, Inc., priority 1976, dated 1978).
Where two headings read alike, the source gives them in different places.

Experiments:
[1] = test system: Serum Triglycerides and Cholesterol; test: Triton-induced hyperlipidemia test (Table 1); type: in vivo, male Sprague-Dawley rats; conditions: 140 mg/kg p.o.; for Serum Cholesterol / Serum Triglycerides: ± SD
Procedure: Fasted, male Sprague-Dawley rats weighing 250-350 g were fed ad libitum a commercial lab chow with free access to water. The animals were fasted overnight and administered Triton-WR-1339 (produced by Ruger Chemical Company, Inc., Irvington, New Jersey) as described by Schurr et al.; Lipids 7 68(1972) except the procedure was modified to use the saphenous vein and divided doses of 70 mg/kg. The rats were anesthetized with sodium pentobarbital and terminally bled by heart puncture. Serum was stored at -20° C. until it was analyzed for total cholesterol and triglycerides. Comparison was also made with clofibrate.

Serum and Liver Lipids [2] = test: Linoleamide of norfenfluramine in rats fed a hypercholesteremic diet: serum and liver lipids (Table 6); type: in vivo; conditions: 0.2% in food
Procedure: (§1) General feeding experiments were conducted on rats to determine the effect of the amides of this invention on serum and liver lipids of animals fed a basal diet and a basal diet supplemented with cholesterol. In addition, the effect of these drugs on serum lipoproteins was studied as well as their effect on body weight, gross feed efficiency, liver weight, appetite and energy utilization with respect to their metabolic size. Male, Sprague-Dawley rats weighing 150-175 g. were housed in cages with raised wire floors in a room kept at a temperature of 24°-26° C. with a 12-hour day and 12-hour night cycle, fed ad libitum a semipurified diet consisting by weight % composition: vitamin-free casein, 20; glucose, 63; hydrogenated coconut oil, 10; GBI Vitamin Fortification Mixture, Cat. #40060 obtained from General Biochemical Company of Chargrin Falls, Ohio, 1; modified salt mix of Williams and Briggs, Cat. #170911 obtained from General Biochemical Company, 4; and cellulose, 2; and watered. The modified salt mix provided the following amounts in grams of elements per Kg. of diet:
(§2) Diets were supplemented with 0.5% cholic acid, 1% cholesterol, and drug at the expense of glucose. The experimental period was 18-21 days with body weight and food measured at specified intervals. Animals were fasted overnight and terminally bled by cardiac puncture. Blood was anti-coagulated with ethylenediamine tetracetic acid and plasma was separated by centrifugation, and stored at -20° C. Livers were excised, weighed, and stored at -20° C. All samples remained at this temperature until they were analyzed for total lipids, total cholesterol, triglycerides and phospholipids. Gross feed efficiency together with the effect of metabolic size on food intake and the effect of drug on energy utilization were determined.
(a) ± values are standard deviation of 10 animals per group.
(b) Semi-purified diet supplemented with 1% cholesterol and 0.5% cholic
acid at expense of glucose.

[3] = Motor activity, modification of the method of Cook et al.; type: in vivo, female albino mice, ICR strain; conditions: 6.5 mg/kg, i.p.
Excerpt: Motor activity of norfenfluramine and the amides of norfenfluramine of this invention were compared by determination of the activity in female, albino mice of the ICR strain by a modification of the method of Cook et al. in J. Pharmac. Exp. Ther. 113:11a (1955).

[4] = Neurotoxicity, tremors and lethality; type: in vivo, mice; conditions: i.p.
[5] = Dietary-induced hyperlipemia test, basal semi-purified diet: liver weight, body weight, food consumption (Table 2); type: in vivo, male Sprague-Dawley rats; conditions: .2% in food
Procedure: as §1, §2
(§3) Results of testing the mixed amides of Example 5 and reference compounds in rats on a basal diet according to the foregoing procedure for dietary induced hyperlipemia are in Tables 2 and 3.

Serum and Liver Lipids [6] = test: Dietary-induced hyperlipemia test, basal semi-purified diet: serum and liver lipids (Table 3); type: in vivo, male Sprague-Dawley rats; conditions: .2% in food, ± S.D.
Procedure: as §1, §2, §3

[7] = type: in vivo, male Sprague-Dawley rats; conditions: cholesterol diet, .2% in food
Procedure: as §1, §2
(§4) Results of testing the mixed amides of Example 5 an reference compounds in rats on a basal diet with added cholesterol according to the foregoing procedure for dietary induced hyperlipemia are in Tables 4 and 5.

Serum and Liver Lipids [8] = test: Dietary-induced hyperlipemia test, basal diet with cholesterol: serum and liver lipids (Table 5); type: in vivo, male Sprague-Dawley rats; conditions: .2% in food, ± S.D.
Procedure: as §1, §2, §4

Serum Lipoproteins = test: Serum lipoproteins of rats fed semi-purified diet supplemented with cholesterol (Table 7); type: in vivo; conditions: .2% in food
Procedure: as §1, §2
^a VLDL, very low density lipoproteins; LDL, low density lipoproteins
and HDL, high density lipoproteins as determined on a Beckman-Gilford

[9] = test system: β-Sterol Synthesis, Liver; test: β-Sterol synthesis, acetate-1-14C incorporation, liver (Table 8); type: in vivo, male Sprague-Dawley rats
Procedure: (§5) The effect of the mixed amides of Example 5 and reference compounds on β Sterol synthesis was determined by a modified procedure of Hill and Dvornik Arch. Biochem. Biophys. 114 (1966), 88. Male Sprague-Dawley rates weighing 127-175 g. were freely provided a basal semi-purified diet and water. The rats were housed in cages with raised wire floors in a room kept at a temperature of 24°-26° C. with a 12-hour day-12-hour night cycle. The cycle was reversed so the night cycle corresponded to the working day to take advantage of the circadian rhythm that favors cholesterol synthesis. The test period was five days and 20 μCi sodium acetate-1-^14 C (Sp. act. 56 mCi/m mole) administered intraperitoneally. Animals were sacrificed under carbon dioxide and the distal 10 cm of the ileum as well as the median and left liver lobes excised and homogenized. Subsequently, the β Sterols were isolated as the digitonide and the radioactivity determined in a Packard Tricarb Liquid Scintillation Spectrometer Model 3385 using 0.5% 2,5 diphenyloxazole and 8% naphthalene in a solvent mixture of 40% toluene, 40% dioxane and 20% absolute ethanol. Data for the effect of the mixed amides of Example 5 on the synthesis of nonsaponifiable substances and β Sterols as determined by the Digitonide method are shown in Table 8. […] A prior art compound, α-methylbenzyllinoleamide at 140 mg/kg, p.o. had no effect on cholesterol synthesis in either tissue.

[10] = test system: β-Sterol Synthesis, Ileum; test: β-Sterol synthesis, acetate-1-14C incorporation, ileum (Table 8); type: in vivo, male Sprague-Dawley rats
Procedure: as §5

[11] = rats; seemed to be caused by reduced feed intake; cited from earlier work

CCCCCCCCCCCCCCCCCC(=O)NC(C)Cc1cccc(C(F)(F)F)c1 (stereo not shown) [Ex.4, N-[1-methyl-2-(3-trifluoromethylphenyl)ethyl]octadecanamide]
% Change Cholesterol ([1]; Test Group IV, vs control): -24%
% Change Triglycerides ([1]; Test Group IV, vs control): -74%
Serum Cholesterol ([1]; Test Group IV): 214.3 ± 91.6 mg/100 ml
Serum Triglycerides ([1]; Test Group IV): 160.0 ± 110.0 mg/100 ml

CCCCC/C=C\C/C=C\CCCCCCCC(=O)NC(C)Cc1cccc(C(F)(F)F)c1 (stereo not drawn) [Ex. 1, N-[1-methyl-2-(3-trifluoromethylphenyl)ethyl]octadeca-9,12-dienamide(cis-cis)]
% Change Triglycerides ([1]; Test Group I, vs control): -54%
Serum Cholesterol ([1]; Test Group I): 209.0 ± 16.4 mg/100 ml
Serum Triglycerides ([1]; Test Group I): 268.7 ± 69.6 mg/100 ml
Liver Cholesterol (Serum and Liver Lipids [2]; SD 0.73 (10 animals), p<.05): 7.15 mg/g
Liver Triglycerides (Serum and Liver Lipids [2]; SD 3.67 (10 animals), p<.05): 5.59 mg/g
Serum Phospholipids (Serum and Liver Lipids [2]; SD 18.4 (10 animals)): 105.4 mg/100 ml
Serum Cholesterol (Serum and Liver Lipids [2]; SD 30 (10 animals), p<.05): 212 mg/100 ml
Serum Triglycerides (Serum and Liver Lipids [2]; SD 62 (10 animals), p<.05): 156 mg/100 ml
Liver Phospholipids (Serum and Liver Lipids [2]; SD printed + 8.75 (10 animals)): 24.1 mg/g

CC(N)Cc1cccc(C(F)(F)F)c1 (stereo not shown) [norfenfluramine]
effect on motor activity [3]: strong effect
tremors ([4]; 40 mg/kg): tremors were observed
lethality ([4]; 100 mg/kg): lethality

CCCCC/C=C\C/C=C\CCCCCCCC(=O)NC(C)c1ccccc1 (stereo not drawn) [α-methylbenzyl linoleamide]
Food Consumed [5]: 331 g
Gross Feed Efficiency ([5]; gross weight gain in grams/total food consumed in grams): .210
Body wt, Final ([5]; ± S.D.): 226 ± 30 g
Liver wt per 100 g body wt. ([5]; ± S.D.): 2.9 ± .3 g
Liver wt, Total ([5]; ± S.D.): 6.7 ± .8 g
Liver Cholesterol (Serum and Liver Lipids [6]): 3.34 ± .24 mg/g
Liver Lipids, Total (Serum and Liver Lipids [6]): 40.05 ± 11.37 mg/g
Liver Triglycerides (Serum and Liver Lipids [6]): 4.85 ± 2.71 mg/g
Serum Cholesterol (Serum and Liver Lipids [6]): 77.50 ± 3.91 mg/100 ml
Serum Lipids, Total (Serum and Liver Lipids [6]): 199.80 ± 60.9 mg/100 ml
Serum Triglycerides (Serum and Liver Lipids [6]): 72.33 ± 29.92 mg/100 ml
Food Consumed [7]: 311 g
Gross Feed Efficiency ([7]; gross weight gain/total food consumed in grams): .177
Body wt, Final ([7]; ± S.D.): 192 ± 25 g
Liver wt per 100 g body wt. ([7]; ± S.D.): 3.7 ± .2 g
Liver wt, Total ([7]; ± S.D.): 7.1 ± 1.3 g
Liver Triglycerides (Serum and Liver Lipids [8]): 4.35 ± 2.88 mg/g
Serum Cholesterol (Serum and Liver Lipids [8]; p<.05 for Ex. 5): 197.75 ± 23.24 mg/100 ml
Liver Cholesterol (Serum and Liver Lipids [8]; p<.05 for all): 8.33 ± 1.37 mg/g
Liver Lipids, Total (Serum and Liver Lipids [8]; p<.05 for all): 84.00 ± 14.26 mg/g
Serum Lipids, Total (Serum and Liver Lipids [8]; p<.05 for all): 453.25 ± 90.58 mg/100 ml
Serum Triglycerides (Serum and Liver Lipids [8]; p<.05 for clofibrate): 262.50 ± 51.88 mg/100 ml
Albumin, Percentage Composition (Serum Lipoproteins): 15.65%
HDL, Percentage Composition (Serum Lipoproteins): 29.62%
LDL, Percentage Composition (Serum Lipoproteins): 18.51%
VLDL, Percentage Composition (Serum Lipoproteins): 36.19%
Acetate-1-14C incorporated, Digitonide ([9]; Liver, 140 mg/kg p.o., ± S.D.): 3.882 ± 2.887 n moles/g tissue
Acetate-1-14C incorporated, Non-saponifiable ([9]; Liver, 140 mg/kg p.o., ± S.D.): 4.533 ± 3.131 n moles/g tissue
effect on cholesterol synthesis ([9]; liver, 140 mg/kg, p.o.): no effect
Acetate-1-14C incorporated, Digitonide ([10]; Ileum, 140 mg/kg p.o., ± S.D.): 5.947 ± .654 n moles/g tissue
Acetate-1-14C incorporated, Non-saponifiable ([10]; Ileum, 140 mg/kg p.o., ± S.D.): 7.648 ± 1.664 n moles/g tissue
effect on cholesterol synthesis ([10]; ileum, 140 mg/kg, p.o.): no effect
gain in body weight [11]: did suppress gain in body weight
